How the values were obtained:
[1] = Biodistribution of 18F-labelled tracers in rats; assay type: in vivo
Procedure, shortened: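 Sprague-Dawley rats received 18F tracer, and brain and peripheral tissues were analysed at 15 and 30 min and 1 and 4 h post-injection. For specificity, rats were pretreated 5 min beforehand with PK11195 or Ro 5-4864 (PBR) or flumazenil (CBR), each at 1 mg/kg.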

[2] = SD rats, 15 min, decay correction not stated
[3] = SD rats, 4 hours, decay correction not stated
[4] = rats, 15 min, corrected for decay of 18F
[5] = rats, 15 min, not corrected for decay of 18F
[6] = rats, 30 min, corrected for decay of 18F
[7] = rats, 30 min, not corrected for decay of 18F
[8] = rats, 60 min (1 hour), not corrected for decay of 18F
[9] = rats, 60 min, corrected for decay of 18F
[10] = rats, 4 hours, corrected for decay of 18F
[11] = rats, 4 hours, not corrected for decay of 18F

For `CCN(CC)C(=O)Cc1c(-c2ccc(OCCCF)cc2)nc2ccc(Cl)cn12` [PBR111, 2-(2-(4-(3-fluoropropoxy)phenyl)-6-chloroimidazo[1,2-a]pyridin-3-yl)-N,N-diethylacetamide], the “Biodistribution: Blood” value [1, 2] was 0.4 % ID/g, the “Biodistribution: Bone” value [1, 2] was 0.87 % ID/g and the “Biodistribution: Kidney” value [1, 2] was 3.2 % ID/g. For the same molecule, the “Biodistribution: Olfactory bulbs” value [1, 2] was 0.64 % ID/g, the “Biodistribution: Adrenals” value ([1]; SD rats, 30 min, decay correction not stated) was 6.5 % ID/g and the “Biodistribution: Adrenals” value [1, 3] was 16 % ID/g. The “Biodistribution: Blood” value [1, 3] was 0.1 % ID/g, the “Biodistribution: Bone” value [1, 3] was 4.3 % ID/g and the “Biodistribution: Kidney” value [1, 3] was 2.3 % ID/g. For the same molecule, the “Biodistribution: Olfactory bulbs” value [1, 3] was 0.41 % ID/g, the “Biodistribution: Bone” value [1, 4] was 0.87 ± 0.12 % ID/g and the “Biodistribution: Heart” value [1, 4] was 6.76 ± 0.82 % ID/g. For the same molecule, the “Biodistribution: Lungs” value [1, 4] was 14.39 ± 2.19 % ID/g, the “Biodistribution: Skin” value [1, 4] was 0.34 ± 0.03 % ID/g and the “Biodistribution: Adrenals” value [1, 5] was 8.36 ± 2.02 % ID/g. For the same molecule, the “Biodistribution: Bladder” value [1, 5] was 0.67 ± 0.36 % ID/g, the “Biodistribution: Blood” value [1, 5] was 0.48 ± 0.11 % ID/g and the “Biodistribution: Bone” value [1, 5] was 0.99 ± 0.18 % ID/g. The “Biodistribution: Brain” value [1, 5] was 0.31 ± 0.06 % ID/g, the “Biodistribution: GIT” value [1, 5] was 1.21 ± 0.11 % ID/g and the “Biodistribution: Heart” value [1, 5] was 7.75 ± 1.08 % ID/g. The “Biodistribution: Kidney” value [1, 5] was 5.18 ± 0.67 % ID/g, the “Biodistribution: Liver” value [1, 5] was 1.54 ± 0.20 % ID/g and the “Biodistribution: Lungs” value [1, 5] was 16.45 ± 2.81 % ID/g. For the same molecule, the “Biodistribution: Muscle” value [1, 5] was 0.68 ± 0.16 % ID/g, the “Biodistribution: Olfactory bulbs” value [1, 5] was 0.74 ± 0.14 % ID/g and the “Biodistribution: Pancreas” value [1, 5] was 2.33 ± 0.33 % ID/g. For the same molecule, the “Biodistribution: Skin” value [1, 5] was 0.39 ± 0.06 % ID/g, the “Biodistribution: Spleen” value [1, 5] was 8.25 ± 2.25 % ID/g and the “Biodistribution: Stomach” value [1, 5] was 0.95 ± 0.23 % ID/g. The “Biodistribution: Testes” value [1, 5] was 0.35 ± 0.05 % ID/g, the “Biodistribution: Thymus” value [1, 5] was 1.07 ± 0.23 % ID/g and the “Biodistribution: Thyroid” value [1, 5] was 11.40 ± 0.33 % ID/g. The “Biodistribution: Bone” value [1, 6] was 1.22 ± 0.10 % ID/g, the “Biodistribution: Heart” value [1, 6] was 6.63 ± 0.35 % ID/g and the “Biodistribution: Lungs” value [1, 6] was 8.41 ± 0.77 % ID/g. For the same molecule, the “Biodistribution: Skin” value [1, 6] was 0.37 ± 0.02 % ID/g, the “Biodistribution: Adrenals” value [1, 7] was 9.06 ± 3.47 % ID/g and the “Biodistribution: Bladder” value [1, 7] was 0.76 ± 0.16 % ID/g. The “Biodistribution: Blood” value [1, 7] was 0.33 ± 0.11 % ID/g, the “Biodistribution: Bone” value [1, 7] was 1.35 ± 0.27 % ID/g and the “Biodistribution: Brain” value [1, 7] was 0.19 ± 0.04 % ID/g. The “Biodistribution: GIT” value [1, 7] was 1.38 ± 0.36 % ID/g, the “Biodistribution: Heart” value [1, 7] was 7.30 ± 0.90 % ID/g and the “Biodistribution: Kidney” value [1, 7] was 4.77 ± 1.05 % ID/g. The “Biodistribution: Liver” value [1, 7] was 0.94 ± 0.28 % ID/g, the “Biodistribution: Lungs” value [1, 7] was 9.27 ± 1.60 % ID/g and the “Biodistribution: Muscle” value [1, 7] was 0.62 ± 0.15 % ID/g. For the same molecule, the “Biodistribution: Olfactory bulbs” value [1, 7] was 0.60 ± 0.14 % ID/g, the “Biodistribution: Pancreas” value [1, 7] was 1.49 ± 0.29 % ID/g and the “Biodistribution: Skin” value [1, 7] was 0.41 ± 0.06 % ID/g. For the same molecule, the “Biodistribution: Spleen” value [1, 7] was 6.54 ± 1.35 % ID/g, the “Biodistribution: Stomach” value [1, 7] was 1.18 ± 0.34 % ID/g and the “Biodistribution: Testes” value [1, 7] was 0.38 ± 0.07 % ID/g. The “Biodistribution: Thymus” value [1, 7] was 1.23 ± 0.47 % ID/g, the “Biodistribution: Thyroid” value [1, 7] was 13.24 ± 4.62 % ID/g and the “Biodistribution: Adrenals” value [1, 8] was 12.11 ± 3.32 % ID/g. The “Biodistribution: Bladder” value [1, 8] was 1.24 ± 0.29 % ID/g, the “Biodistribution: Blood” value [1, 8] was 0.24 ± 0.08 % ID/g and the “Biodistribution: Bone” value [1, 8] was 2.41 ± 0.24 % ID/g. The “Biodistribution: Brain” value [1, 8] was 0.17 ± 0.04 % ID/g, the “Biodistribution: GIT” value [1, 8] was 1.89 ± 0.37 % ID/g and the “Biodistribution: Heart” value [1, 8] was 8.41 ± 1.91 % ID/g. The “Biodistribution: Kidney” value [1, 8] was 5.08 ± 1.23 % ID/g, the “Biodistribution: Liver” value [1, 8] was 0.82 ± 0.22 % ID/g and the “Biodistribution: Lungs” value [1, 8] was 7.29 ± 2.12 % ID/g. The “Biodistribution: Muscle” value [1, 8] was 0.55 ± 0.11 % ID/g, the “Biodistribution: Olfactory bulbs” value [1, 8] was 0.65 ± 0.14 % ID/g and the “Biodistribution: Pancreas” value [1, 8] was 1.24 ± 0.36 % ID/g. For the same molecule, the “Biodistribution: Skin” value [1, 8] was 0.54 ± 0.07 % ID/g, the “Biodistribution: Spleen” value [1, 8] was 6.72 ± 1.91 % ID/g and the “Biodistribution: Stomach” value [1, 8] was 0.91 ± 0.06 % ID/g. For the same molecule, the “Biodistribution: Testes” value [1, 8] was 0.51 ± 0.09 % ID/g, the “Biodistribution: Thymus” value [1, 8] was 1.39 ± 0.29 % ID/g and the “Biodistribution: Thyroid” value [1, 8] was 13.04 ± 3.22 % ID/g. For the same molecule, the “Biodistribution: Bone” value [1, 9] was 2.04 ± 0.09 % ID/g, the “Biodistribution: Lungs” value [1, 9] was 5.68 ± 1.03 % ID/g and the “Biodistribution: Skin” value [1, 9] was 0.46 ± 0.02 % ID/g. The “Biodistribution: Bone” value [1, 10] was 4.32 ± 0.33 % ID/g, the “Biodistribution: Lungs” value [1, 10] was 3.02 ± 0.39 % ID/g and the “Biodistribution: Skin” value [1, 10] was 0.63 ± 0.04 % ID/g. The “Biodistribution: Adrenals” value [1, 11] was 17.81 ± 3.61 % ID/g, the “Biodistribution: Bladder” value [1, 11] was 1.33 ± 0.17 % ID/g and the “Biodistribution: Blood” value [1, 11] was 0.12 ± 0.02 % ID/g. The “Biodistribution: Bone” value [1, 11] was 4.86 ± 0.86 % ID/g, the “Biodistribution: Brain” value [1, 11] was 0.10 ± 0.02 % ID/g and the “Biodistribution: GIT” value [1, 11] was 2.01 ± 0.27 % ID/g. For the same molecule, the “Biodistribution: Heart” value [1, 11] was 4.92 ± 0.66 % ID/g, the “Biodistribution: Kidney” value [1, 11] was 2.57 ± 0.48 % ID/g and the “Biodistribution: Liver” value [1, 11] was 0.44 ± 0.07 % ID/g. The “Biodistribution: Lungs” value [1, 11] was 3.37 ± 0.40 % ID/g, the “Biodistribution: Muscle” value [1, 11] was 0.19 ± 0.05 % ID/g and the “Biodistribution: Olfactory bulbs” value [1, 11] was 0.47 ± 0.06 % ID/g. The “Biodistribution: Pancreas” value [1, 11] was 0.61 ± 0.10 % ID/g, the “Biodistribution: Skin” value [1, 11] was 0.71 ± 0.07 % ID/g and the “Biodistribution: Spleen” value [1, 11] was 3.45 ± 0.43 % ID/g. For the same molecule, the “Biodistribution: Stomach” value [1, 11] was 0.51 ± 0.06 % ID/g, the “Biodistribution: Testes” value [1, 11] was 0.67 ± 0.08 % ID/g and the “Biodistribution: Thymus” value [1, 11] was 1.88 ± 0.40 % ID/g. For the same molecule, the “Biodistribution: Thyroid” value [1, 11] was 8.91 ± 1.19 % ID/g and the chromatographic logP (LogP HPLC) was 3.2 ± 0.1.

Reference: US20100209345A1, “Fluorinated Ligands for Targeting Peripheral Benzodiazepine Receptors” (Australian Nuclear Science & Technology Organisation, priority 2006, published 2010)
